Key:
Assay type in all cases: in vivo, mouse
[1] = test system: R mice; assay: Pre-Pulse Inhibition (PPI) test during pharmacological challenge
Experimental: Gaiting and re-activity of the startle reflex was investigated by Acoustic Startle Response (ASR) and Pre-Pulse Inhibition (PPI) tests. In addition to baseline scores mice were also tested during pharmacological challenge; PCP (2.5 and 5 mg/kg s.c.) and amphetamine (2.5 and 5 mg/kg s.c.).

[2] = test system: R mice; assay: Psychotropic drug-induced locomotor hyperactivity test
Experimental: Psychotropic drug-induced locomotor hyperactivity was established by injections with PCP (1.3, 2.5, and 5 mg/kg s.c.), amphetamine (1.3, 2.5, and 5 mg/kg s.c.) and cocaine (10, 20, and 30 mg/kg s.c.) as opposing saline vehicle s.c. and measured by recording both horizontal locomotor activity and rearing activity in an automated photo-cell equipped home-cage.

[3] = test system: R mice; assay: Forced swim test (FST) with anti-depressants; settings: for depressive equivalent behaviours during FST, difference between R and W mice: imipramine 1 mg/kg and 10 mg/kg, Fluoxetine 5 mg/kg, SC
Experimental: (§2) Depressive equivalent behaviours were assessed by forced swim test (FST) and tail suspension test (TST). Depressive equivalent behaviours (FST and TST) were assessed with anti-depressants (e.g. imipramine at two doses: 1 mg/kg and 10 mg/kg and Fluoxetine: 5 mg/kg, and with normal saline vehicle subcutaneous (SC) injections.

[4] = test system: R mice; assay: Tail suspension test (TST) with anti-depressants; settings: for depressive equivalent behaviours during TST, difference between R and W mice: imipramine 1 mg/kg and 10 mg/kg, Fluoxetine 5 mg/kg, SC
Experimental: as §2

[5] = test system: R mice; assay: Y-maze spontaneous alternation test with PCP challenge; settings: R mice vs W, PCP 1.3 mg/kg s.c., p<0.01
Experimental: (§1) Spatial learning and spatial working memory was tested in the Morris Water Maze (MWM). Learning was scored based on latency to escape while memory was scored based on frequency and time spent in each zone of the maze. Exploratory and working memory components was addressed by various types of y-maze alternation tasks including spontaneous alternation test with dark phase testing, continuous alternation, and delayed alternation. Both baseline and induced behaviour (PCP 1.3 mg/kg s.c. and 2.5 mg/kg s.c.) was assessed. In all Y-maze tasks, alternation was calculated as the percentage of right choices out of the total arm entries.

[6] = test system: R mice; assay: Y-maze continuous alternation test with PCP challenge; settings: R mice vs W, PCP 1.3 mg/kg s.c., p<0.05
Experimental: as §1

[7] = Imipramine 10 mg/kg compared with Fluoxetine

`CC(N)Cc1ccccc1` (stereo not shown) [Amphetamine, amphetamine] was tested, and the “differences between R and W mice in PPI test when challenged” value ([1]; amphetamine at any dose (2.5 and 5 mg/kg s.c.)) was “No differences” and the “drug-induced locomotor activity response (horizontal and rearing activity)” value ([2]; R males compared to W mice, amphetamine 5 mg/kg s.c.) was “obvious hypoactivity”.

For `CNCCC(Oc1ccc(C(F)(F)F)cc1)c1ccccc1` (stereo not shown) [Fluoxetine], the “depressive equivalent behaviours during FST, difference between R and W mice” value [3] was “reversed” and the “depressive equivalent behaviours during TST, difference between R and W mice” value [4] was “reversed”.

In the case of `CN(C)CCCN1c2ccccc2CCc2ccccc21` [Imipramine, imipramine], the “effect size on depressive equivalent behaviours (FST)” value [3, 7] is reported as “larger effect sizes than Fluoxetine”, the “depressive equivalent behaviours during FST, difference between R and W mice” value [3] is reported as “reversed” and the “effect size on depressive equivalent behaviours (TST)” value [4, 7] is reported as “larger effect sizes than Fluoxetine”. For the same molecule, the “depressive equivalent behaviours during TST, difference between R and W mice” value [4] was “reversed”.

For `c1ccc(C2(N3CCCCC3)CCCCC2)cc1` [PCP], the “inhibition of the startle in the PPI test” value ([1]; R males vs W mice, high prepulse intensities (15 db above background noise level), PCP 5 m/kg s.c.) was “reduced”, the “Prepulse inhibition, response of R mice as compared to W littermates” value ([1]; Table 1, males only with PCP) was “Decreased” and the “alternation in the spontaneous alternation test” value [5] was “significant reduction”. The “alternation in the continuous alternation test” value [6] was “significant reduction” and the “drug-induced locomotor hyperactivity (horizontal and rearing activity)” value ([2]; R males vs W mice, PCP 5 mg/kg s.c.) was “clear sensitivity”.
